We go through 16 compounds from PMC5312080 (mBio, 2017).

≈ marks a conversion by molar mass, not a printed value. Where “and” joins values, the source holds several entries; their conditions need not be identical. Equal values may be shown once. Read-outs that look alike come from different tables or passages of the source.

The nature of series [1]: in vitro. The note with it: African green monkey.
Series [2] deals with M. tuberculosis H37Rv. In words: Microdilution alamarBlue assay (MABA) MIC. The format is cell-based. To be noted: Mycobacterium tuberculosis. (In general: Dilution methods test growth across graded concentrations, often in twofold steps.)
For series [3], the system named is mycobacterial oxygen consumption. In words: Oxygen consumption, methylene blue decolorization. The format is cell-based.
Series [4] concerns ATP synthesis in BCG. It counts as cell-based, Mycobacterium bovis BCG.
In series [5] the test system is M. tuberculosis H37Rv. Briefly: Checkerboard alamarBlue compound interaction assay. The format is cell-based, Mycobacterium tuberculosis. The note with it: for FIC: FIC of the anti-TB drug in combination with DG70; for MIC: Mycobacterium tuberculosis, H37RV, drug alone, checkerboard; for MIC In combination: anti-TB drug in combination with DG70; for FIC category / FIC index (∑FIC): combination of the named drug with DG70. In general terms: The colour change of resazurin is a common sign of viable cells or microbes.

Series [6] deals with BCG. It counts as cell-based, Mycobacterium bovis BCG.
For series [7], the system named is menaquinone biosynthesis (MenG). The format is cell-based, Mycobacterium bovis BCG.
The test system is the same in series [8]. It counts as cell-based, Mycobacterium bovis BCG. This is another data set of the same source.
For series [9], the system named is nonreplicating M. tuberculosis. It counts as cell-based, Mycobacterium tuberculosis.
Series [10] concerns M. bovis BCG. In words: microbe, parasite or virus in culture. The format is cell-based. To be noted: Mycobacterium tuberculosis variant bovis BCG.
Setting [11] is: Table S2, parent H37Rv, read-out: MIC in Mtb H37Rv.
Where [12] appears, read: whole-cell activity versus M. tuberculosis, […], read-out: MIC.

The MIC is the smallest concentration in the dilution series that meets the test's criterion for growth inhibition. With `O=C(Nc1cccc(-c2ccccc2)c1)c1ccc(F)cc1Cl` [JSF-2910], the CC50 in series [1] was above 50 mg/L. Besides, the MIC in series [2] (setting [11]) and in series [2] (setting [12]) was 9.6 mg/L (≈ 29.5 µM) in each case.

For `CSc1ccc2c(c1)N(CCC1CCCCN1C)c1ccccc1S2` (stereo not drawn) [THZ, thioridazine], in series [3], the “effect of MK4 supplementation on inhibition of oxygen consumption” value is “failed to reverse”. For the same compound, in series [4], the “effect of MK4 supplementation on inhibition of ATP synthesis” value is reported as “failed to reverse”. Further, in [5], the FIC stood at 0.5; the MIC stood at 6.25 µM; the “MIC In combination” value amounted to 3.12 µM; the FIC category result was “additive (>0.5 to ≤1, additive)”. Also, in series [5], the “FIC index (∑FIC)” value was 0.7.

For the compound `COc1nc2ccc(Br)cc2cc1[C@@H](c1ccccc1)[C@@](O)(CCN(C)C)c1cccc2ccccc12` [BDQ, bedaquiline], in [6], the “killing (drop in CFU) over 21 days” value is 5 log10, the “killing in 4 days” value was “less than 1 log10” and the “time of treatment to sterile cultures (no CFU detected)” value (shortened to “time of treatment … (no CFU detected)”) came to 21 days. Further, the “[14C]methyl incorporation into menaquinone” value in [7] was “no such effect”. The “effect of MK4 supplementation on inhibition of oxygen consumption” value in series [3] (400 µM MK4) is reported as “failed to reverse”. In addition, the “effect of MK4 supplementation on inhibition of ATP synthesis” value in series [4] is listed as “failed to reverse”. Further, in series [5], the FIC is given as 0.4; the MIC came out at 0.39 µM; the “MIC In combination” value is listed as 0.16 µM; the FIC category entry is “synergistic (≤0.5, synergistic)”. In addition, the “FIC index (∑FIC)” value in series [5] is 0.5.

In turn, `COc1ccc(NC(=O)c2ccc(F)cc2Cl)cc1-c1ccccc1` [JSF-2971] yielded a CC50 in [1] above 50 mg/L. Further, the MIC in series [2] (setting [11]) and in [2] (setting [12]) was 9.6 mg/L (≈ 27 µM) in each case.

For `COc1ccc(-c2cc(NC(=O)c3ccc(F)cc3)ccc2OC)cc1` [JSF-2909], in series [1], the CC50 was above 50 mg/L. Also, the MIC in [2] (setting [11]) and in series [2] (setting [12]) was above 77 mg/L each time.

`COc1ccc(-c2cc(N(C)C(=O)c3ccc(F)cc3Cl)ccc2OC)cc1` [JSF-2949]: the CC50 in series [1] was 24 mg/L (≈ 60 µM). In addition, the values for the MIC in [2] (setting [11]) and in series [2] (setting [12]) were 39.5 mg/L (≈ 98.8 µM) and 39 mg/L (≈ 97.5 µM), respectively.

In series [1], `COc1ccc(-c2cc(NC(=O)c3ccccc3Cl)ccc2OC)cc1` [JSF-2908] came in with a CC50 of 50 mg/L (≈ 136 µM). Besides, the MIC in [2] (setting [11]) and in series [2] (setting [12]) was 4.8 mg/L (≈ 13 µM) in each case.

In the case of `O=[N+]([O-])c1cn2c(n1)OC[C@@H](OCc1ccc(OC(F)(F)F)cc1)C2` [PA824], in series [6], the regrowth after came to 10 days and the “time of treatment … (no CFU detected)” value came to 10 days. Moreover, in [5], the FIC was 1.0; the MIC came to 0.1 µM; the “MIC In combination” value is given as 0.1 µM; the FIC category entry is “additive (>0.5 to ≤1, additive)”. The “FIC index (∑FIC)” value in [5] is 1.0.

Turning to `COc1ccc(-c2cc(NC(=O)c3ccccc3)ccc2OC)cc1` [JSF-2912], the CC50 in series [1] was above 80 mg/L. The MIC in series [2] (setting [11]) and in series [2] (setting [12]) was 9.6 mg/L (≈ 28.8 µM) each time.

As to `NNC(=O)c1ccncc1` [INH, isoniazid], in [6], the regrowth after is listed as 7 days and the “time of treatment … (no CFU detected)” value is 10 days. The MK9/DMK9 in series [8] was 3.8 and 2.9. In addition, the “day by which cultures were completely sterilized” value in series [9] was at most 10 days. Moreover, in [2], the MIC90 is 0.05 mg/L (≈ 0.365 µM). Besides, in series [10], the MIC90 was 0.05 mg/L (≈ 0.365 µM). In addition, in [7], the “[14C]methyl incorporation into menaquinone” value was “no such effect”. Besides, the “oxygen consumption (methylene blue decolorization at 665 nm)” value in series [3] is recorded as “clearly decolorized methylene blue”. For the same compound, in series [5], the FIC came out at 0.2; the MIC came out at 0.39 µM; the “MIC In combination” value was 0.09 µM; the FIC category result is “synergistic (≤0.5, synergistic)”. Moreover, the “FIC index (∑FIC)” value in series [5] was 0.4.

Regarding `COc1ccc(NC(=O)c2ccc(F)cc2Cl)cc1` [JSF-2926], in series [1], the CC50 is above 70 mg/L. Besides, the MIC in [2] (setting [11]) and in [2] (setting [12]) was 9.6 mg/L (≈ 34.3 µM) in each case.

As to `CC[C@@H](CO)NCCN[C@@H](CC)CO` [EMB, ethambutol], in series [5], the FIC is 0.5; the MIC worked out at 6.25 µM; the “MIC In combination” value is listed as 3.12 µM; the FIC category entry is given as “additive (>0.5 to ≤1, additive)”. In addition, the “FIC index (∑FIC)” value in [5] is listed as 0.6.

Take `COc1ccc(-c2cccc(NC(=O)c3ccc(F)cc3Cl)c2)cc1` [JSF-2907]: the CC50 in series [1] came to 50 mg/L (≈ 141 µM). In addition, the MIC in series [2] (setting [11]) and in series [2] (setting [12]) was above 77 mg/L throughout.

In series [1], `COc1ccc(-c2cc(NCc3ccc(F)cc3Cl)ccc2OC)cc1` [JSF-2951] had a CC50 above 50 mg/L. Also, the MIC in series [2] (setting [11]) and in [2] (setting [12]) was 77 mg/L (≈ 207 µM) throughout.

Take `CO[C@H]1/C=C/O[C@@]2(C)Oc3c(C)c(O)c4c(O)c(c(/C=N/N5CCN(C)CC5)c(O)c4c3C2=O)NC(=O)/C(C)=C\C=C\[C@H](C)[C@H](O)[C@@H](C)[C@@H](O)[C@@H](C)[C@H](OC(C)=O)[C@@H]1C` [RIF, rifampin]: in series [5], the FIC amounted to 0.25; the MIC was 0.02 µM; the “MIC In combination” value came to 0.005 µM; the FIC category result was “synergistic (≤0.5, synergistic)”. The “FIC index (∑FIC)” value in series [5] came out at 0.5.

In series [1], `O=C(Nc1ccc(O)c(-c2ccc(O)cc2)c1)c1ccc(F)cc1Cl` [JSF-2950] showed a CC50 of 50 mg/L (≈ 140 µM). Besides, the MIC in series [2] (setting [11]) is 39.5 mg/L (≈ 110 µM); in series [2] (setting [12]), 39 mg/L (≈ 109 µM).
